Assay results from patent publication US10881653B2, “Tricyclic compounds and their use in the treatment of cancer” (The United States of America, as represented by the …, priority 2015, dated 2021).
Counter-ions that a name gives are not always drawn.

Target: T1, gluthathione reductase (GR) (Homo sapiens, UniProt P00390)
T1 sequence (P00390 44-522): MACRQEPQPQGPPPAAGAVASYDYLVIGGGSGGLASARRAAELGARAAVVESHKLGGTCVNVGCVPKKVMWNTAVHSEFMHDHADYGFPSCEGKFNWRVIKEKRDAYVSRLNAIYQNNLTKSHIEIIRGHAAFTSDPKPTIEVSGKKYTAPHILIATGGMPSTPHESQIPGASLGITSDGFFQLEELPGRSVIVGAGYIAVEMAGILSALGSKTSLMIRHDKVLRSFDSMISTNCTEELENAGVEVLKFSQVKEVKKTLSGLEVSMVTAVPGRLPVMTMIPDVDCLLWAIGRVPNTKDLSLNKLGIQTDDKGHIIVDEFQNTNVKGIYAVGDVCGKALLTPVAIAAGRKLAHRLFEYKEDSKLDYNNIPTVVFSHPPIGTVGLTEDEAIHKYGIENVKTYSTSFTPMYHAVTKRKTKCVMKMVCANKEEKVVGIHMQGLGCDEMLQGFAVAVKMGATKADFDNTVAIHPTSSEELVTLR
Test: Inhibition of recombinant GR (GSSG assay)
Type: biochemical
Outline: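 Human TrxR1 (15 nM) or GR (2 nM) preincubated 15 min with compound, 250 μM NADPH, 0.1 mg/ml BSA in 50 mM Tris pH 7.5, 2 mM EDTA, 1% DMSO. Reaction started with 2.5 mM DTNB (TrxR1, A412) or 1 mM GSSG (GR, A340). Percent activity relative to DMSO and no-enzyme blanks.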

With `O=C1C=C[C@H]2[C@@H]3C(=O)N(c4ccccc4)C(=O)[C@@H]3[C@@H]1N2Cc1ccccc1` (relative stereo) [Example 1, exo-11-Benzyl-4-phenyl-4,11-diazatricyclo[5.3.1.0^2,6]undec-9-ene-3,5,8-trione Trifluoroacetate] the IC50 (Biological Example 1, 2 nM GR, 250 μM NADPH, 15 minutes incubation) was over 100 µM and the IC50 (Biological Example 4, assays of Biological Example 1) was over 100 µM.
